Measured values as given in US20230123589A1, “MOLECULAR MOBILITY ENHANCER OR MOLECULAR DRYING ENHANCER” (TEKDRY INTERNATIONAL, INC., priority 2020, published 2023).

Experiment: Evaluation of vapor diffusion (chemical indicators in 2-meter long 4-mm inner diameter polytetrafluoroethylene tube)
Assay type: physicochemical
Settings: 50° C., less than 10 torr, 15-minute time period
[1] = introduced into chamber extension
[2] = introduced into process chamber

Source text: A typical diffusion apparatus for conducting these evaluations includes a stainless-steel pressure chamber which is connected to a smaller stainless-steel extension chamber. Connection is made by means of a stainless-steel tube that contains a valve for isolating vapor flow between the vacuum chamber and the chamber extension. The chamber extension contains isolated compartments that admitted molecular mobility enhancer (MME) and/or liquid or solid agent components. The vacuum chamber and the chamber extension are independently heated. […] The isolated compartments within the chamber extension were independently heated. […] The chamber extension as a whole as well as the isolated compartments within the chamber extension are connected to MME and transport moiety sources via a valve and a conduit connected to a flow controller. The chamber extension is also outfitted with a door that can be used for placing solid agent sources within the extension. The entire system (vacuum chamber and chamber extension) is connected to a vacuum system e.g., (comprising a vacuum pump) capable of reducing the pressure and vaporizing the molecular mobility enhancer and liquid or solid transport moieties.
The tube and its contents were placed in the process chamber of the diffusion system. In this test the process chamber was heated to 50° C. […] The door to the diffusion system was closed and sealed. The diffusion system was evacuated to a pressure less than 10 torr. Multiple vaporization/diffusion cycles were performed over the course of a 15-minute time period. At the end of the process the diffusion system was brought to atmosphere and the tube and its contents were removed from the process chamber.
The tube and its contents were placed in the process chamber of the diffusion system. In this test the diffusion system was heated to 50° C. […] The door to the diffusion system was closed and sealed. The diffusion system including the chamber extension was evacuated to a pressure less than 10 torr. Multiple vaporization/diffusion cycles were performed over the course of a 15-minute time period.

## OO [aqueous hydrogen peroxide (30 wt %), hydrogen peroxide]
[1]
  color change on chemical indicators: exposure of entire inner length of the tube to transport moiety vapor: entire inner length of the tube had not been exposed
[2]
  color change on chemical indicators: exposure of entire inner length of the tube to transport moiety vapor: entire inner length of the tube had not been exposed

## CC(C)O [isopropanol]
[1]
  color change on chemical indicators: exposure of entire inner length of the tube to transport moiety vapor: entire inner length of the tube had not been exposed
[2]
  color change on chemical indicators: exposure of entire inner length of the tube to transport moiety vapor: entire inner length of the tube had not been exposed
